# In US7776847B2, “Benzisothiazoles useful for treating or preventing HCV infection” (priority 2005, dated 2010):
# Tested on: HCV replicon
# Test: HCV replicon luciferase reporter assay
# Type: cell-based
# Design: scale not given here
# Conditions: Hepatitis C virus, Table 5; read-out: IC50
# Experimental: The inhibitory activity of certain exemplary compounds of the invention was confirmed using an HCV replicon assay. The HCV replicon can include such features as the HCV IRES, the HCV 3′ untranslated region, selected HCV genes encoding HCV polypeptides, selectable markers, and a reporter gene such as luciferase, GFP, etc. In the assay, actively dividing replicon-comprising cells were seeded at a density of between about 5,000 and 7,500 cells/well onto 96 well plates (about 90 μl of cells per well) and incubated at 37° C. and 5% CO2 for 24 hours. Then, the test compound (in a volume of about 10 μL) was added at various concentrations to each well and the cells were incubated for an additional 24-48 hours. The cells were harvested, and HCV replication or translation was monitored via a reporter assay, e.g., a luciferase reporter assay. The media was aspirated from each cell and Bright-Glo ([…].) luciferase assay reagents were added to each well according to the manufacturer's instructions. In this assay, the amount of test compound that yielded a 50% reduction in luciferase activity (IC50) was determined.
row,SMILES,IC50
1,"c1ccc(COc2cccc(CNCCCNc3nsc4ccccc34)c2)cc1 [Compound 328, N^1-(benzo[d]isothiazol-3-yl)-N^3-(3-(benzyloxy)benzyl)propane-1,3-diamine]",< 5 µM
2,"c1ccc(-c2ncc(CNCCCNc3nsc4ccccc34)[nH]2)cc1 [Compound 329, N^1-(benzo[d]isothiazol-3-yl)-N^3-((2-phenyl-1H-imidazol-4-yl)methyl)propane-1,3-diamine]",< 5 µM
3,"c1ccc(-c2[nH]c3ccccc3c2CNCCCNc2nsc3ccccc23)cc1 [Compound 330, N^1-(benzo[d]isothiazol-3-yl)-N^3-((2-phenyl-1H-indol-3-yl)methyl)propane-1,3-diamine]",< 5 µM
4,"COc1ccc(-c2ccc(S(=O)(=O)NCCCNc3nsc4ccccc34)cc2)cc1 [Compound 331, N-(3-(benzo[d]isothiazol-3-ylamino)propyl)-4′-methoxybiphenyl-4-sulfonamide]",< 5 µM
5,"COc1ccc(-c2ccc(S(=O)(=O)NCCCNc3nsc4ccccc34)cc2)cc1OC [Compound 332, N-(3-(benzo[d]isothiazol-3-ylamino)propyl)-3′,4′-dimethoxybiphenyl-4-sulfonamide]",< 5 µM
6,"O=S(=O)(NCCCNc1nsc2ccccc12)c1ccc(-c2ccc(OC(F)(F)F)cc2)cc1 [Compound 333, N-(3-(benzo[d]isothiazol-3-ylamino)propyl)-4′-(trifluoromethoxy)biphenyl-4-sulfonamide]",< 5 µM
7,"COC(=O)c1ccc(-c2ccc(S(=O)(=O)NCCCNc3nsc4ccccc34)cc2)cc1 [Compound 334, methyl 4′-(N-(3-(benzo[d]isothiazol-3-ylamino)propyl)sulfamoyl)biphenyl-4-carboxylate]",< 5 µM
8,"O=S(=O)(NCCCNc1nsc2ccccc12)c1ccc(-c2ccccc2C(F)(F)F)cc1 [Compound 335, N-(3-(benzo[d]isothiazol-3-ylamino)propyl)-2′-(trifluoromethyl)biphenyl-4-sulfonamide]",< 5 µM
9,"FC(F)(F)Oc1ccc(-c2ccc(CNCCCNc3nsc4ccccc34)cc2)cc1 [Compound 336, N^1-(benzo[d]isothiazol-3-yl)-N^3-((4′-(trifluoromethoxy)biphenyl-4-yl)methyl)propane-1,3-diamine]",< 5 µM
10,"c1ccc2oc(CNCCCNc3nsc4ccccc34)cc2c1 [Compound 337, N^1-(benzo[d]isothiazol-3-yl)-N^3-(benzofuran-2-ylmethyl)propane-1,3-diamine]",< 5 µM
11,"c1ccc2c(NCCCNCc3ccc(N4CCCC4)cc3)nsc2c1 [Compound 338, N^1-(benzo[d]isothiazol-3-yl)-N^3-(4-(pyrrolidin-1-yl)benzyl)propane-1,3-diamine]",< 5 µM
12,"COc1ccc(-c2ccc(CN(CCCNc3nsc4ccccc34)C(=O)CS(C)(=O)=O)cc2)cc1 [Compound 339, N-(3-(benzo[d]isothiazol-3-ylamino)propyl)-N-((4′-methoxybiphenyl-4-yl)methyl)-2-(methylsulfonyl)acetamide]",< 5 µM
13,"COc1ccc(-c2ccc(CN(CCCNC3=NS(=O)(=O)c4ccccc43)S(=O)(=O)c3cn(C)c(C)n3)cc2)cc1 [Compound 340, N-{3-[(1,1-dioxido-1,2-benzisothiazol-3-yl)amino]propyl}-N-[(4′-methoxybiphenyl-4-yl)methyl]-1,2-dimethyl-1H-imidazole-4-sulfonamide]",> 5 µM
14,"COc1cccc(CNCCCNc2nsc3ccccc23)c1 [Compound 343, N^1-(benzo[d]isothiazol-3-yl)-N^3-(3-methoxybenzyl)propane-1,3-diamine]",< 5 µM
15,"COc1cccc(S(=O)(=O)N(C)CCCN(C)c2nsc3ccccc23)c1 [Compound 344, N-(3-(benzo[d]isothiazol-3-yl(methyl)amino)propyl)-3-methoxy-N-methylbenzenesulfonamide]",> 5 µM
16,"CN(CCCN(C)S(=O)(=O)c1ccccc1C(F)(F)F)c1nsc2ccccc12 [Compound 345, N-(3-(benzo[d]isothiazol-3-yl(methyl)amino)propyl)-N-methyl-2-(trifluoromethyl)benzenesulfonamide]",> 5 µM
17,"O=C1CCCN1c1ccc(CNCCCNc2nsc3ccccc23)cc1 [Compound 346, 1-(4-((3-(benzo[d]isothiazol-3-ylamino)propylamino)methyl)phenyl)pyrrolidin-2-one]",> 5 µM
18,"COc1ccc(-c2ccc(CN(C)CCCN(C)c3nsc4ccccc34)cc2)cc1 [Compound 347, N^1-(benzo[d]isothiazol-3-yl)-N^3-((4′-methoxybiphenyl-4-yl)methyl)-N^1,N^3-dimethylpropane-1,3-diamine]",> 5 µM
19,"O=C(N[C@@H](C(=O)NCCNc1nsc2ccccc12)c1ccccc1)c1ccc(Cl)cc1 [Compound 348, (R)-N-(2-(2-(benzo[d]isothiazol-3-ylamino)ethylamino)-2-oxo-1-phenylethyl)-4-chlorobenzamide]",< 5 µM

row,SMILES,IC50
1,"O=C(NCCNc1nsc2ccccc12)c1ccc(F)cc1F [Compound 349, N-(2-(benzo[d]isothiazol-3-ylamino)ethyl)-2,4-difluorobenzamide]",< 5 µM
2,"O=C(NCCNc1nsc2ccccc12)c1cc(F)ccc1F [Compound 350, N-(2-(benzo[d]isothiazol-3-ylamino)ethyl)-2,5-difluorobenzamide]",< 5 µM
3,"O=C(NCCNc1nsc2ccccc12)c1ccccc1C(F)(F)F [Compound 351, N-(2-(benzo[d]isothiazol-3-ylamino)ethyl)-2-(trifluoromethyl)benzamide]",< 5 µM
4,"O=C(NCCNc1nsc2ccccc12)c1cc(F)ccc1C(F)(F)F [Compound 352, N-(2-(benzo[d]isothiazol-3-ylamino)ethyl)-5-fluoro-2-(trifluoromethyl)benzamide]",> 5 µM
5,"O=C(NCCNc1nsc2ccccc12)c1cc(F)cc(C(F)(F)F)c1 [Compound 353, N-(2-(benzo[d]isothiazol-3-ylamino)ethyl)-3-fluoro-5-(trifluoromethyl)benzamide]",< 5 µM
6,"O=C(NCCNc1nsc2ccccc12)c1ccc(C(F)(F)F)cc1F [Compound 354, N-(2-(benzo[d]isothiazol-3-ylamino)ethyl)-2-fluoro-4-(trifluoromethyl)benzamide]",< 5 µM
7,"O=C(NCCNc1nsc2ccccc12)c1ccc(C(F)(F)F)c(F)c1 [Compound 355, N-(2-(benzo[d]isothiazol-3-ylamino)ethyl)-3-fluoro-4-(trifluoromethyl)benzamide]",< 5 µM
8,"O=C(NCCNc1nsc2ccccc12)c1ccc(C(F)(F)F)cc1C(F)(F)F [Compound 356, N-(2-(benzo[d]isothiazol-3-ylamino)ethyl)-2,4-bis(trifluoromethyl)benzamide]",< 5 µM
9,"O=C(NCCNc1nsc2ccccc12)c1cc(C(F)(F)F)ccc1C(F)(F)F [Compound 357, N-(2-(benzo[d]isothiazol-3-ylamino)ethyl)-2,5-bis(trifluoromethyl)benzamide]",< 5 µM
10,"O=C(NCCNc1nsc2ccccc12)c1c(F)cccc1C(F)(F)F [Compound 358, N-(2-(benzo[d]isothiazol-3-ylamino)ethyl)-2-fluoro-6-(trifluoromethyl)benzamide]",> 5 µM
11,"COc1ccc(-c2ccc(C(=O)NCCNc3nsc4ccccc34)cc2)cc1 [Compound 360, N-(2-(benzo[d]isothiazol-3-ylamino)ethyl)-4′-methoxybiphenyl-4-carboxamide]",< 5 µM
12,"COc1ccc(-c2ccc(C(=O)NCCNc3nsc4ccccc34)cc2)cc1OC [Compound 361, N-(2-(benzo[d]isothiazol-3-ylamino)ethyl)-3′,4′-dimethoxybiphenyl-4-carboxamide]",< 5 µM
13,"COc1ccc(Cl)cc1-c1ccc(C(=O)NCCNc2nsc3ccccc23)cc1 [Compound 362, N-(2-(benzo[d]isothiazol-3-ylamino)ethyl)-5′-chloro-2′-methoxybiphenyl-4-carboxamide]",< 5 µM
14,"Cc1ccc(OC(C)C)c(-c2ccc(C(=O)NCCNc3nsc4ccccc34)cc2)c1 [Compound 363, N-(2-(benzo[d]isothiazol-3-ylamino)ethyl)-2′-isopropoxy-5′-methylbiphenyl-4-carboxamide]",< 5 µM
15,"COc1cccc(-c2ccc(C(=O)NCCNc3nsc4ccccc34)cc2)c1OC [Compound 364, N-(2-(benzo[d]isothiazol-3-ylamino)ethyl)-2′,3′-dimethoxybiphenyl-4-carboxamide]",< 5 µM
16,"COc1ccc(C)cc1-c1ccc(C(=O)NCCNc2nsc3ccccc23)cc1 [Compound 365, N-(2-(benzo[d]isothiazol-3-ylamino)ethyl)-2′-methoxy-5′-methylbiphenyl-4-carboxamide]",< 5 µM
17,"COc1ccc(-c2ccc(C(=O)NCCNc3nsc4ccccc34)cc2)c(C)c1 [Compound 366, N-(2-(benzo[d]isothiazol-3-ylamino)ethyl)-4′-methoxy-2′-methylbiphenyl-4-carboxamide]",< 5 µM
18,"CCCOc1ccc(F)cc1-c1ccc(C(=O)NCCNc2nsc3ccccc23)cc1 [Compound 367, N-(2-(benzo[d]isothiazol-3-ylamino)ethyl)-5′-fluoro-2′-propoxybiphenyl-4-carboxamide]",< 5 µM
19,"COc1cc(F)ccc1-c1cccc(C(=O)NCCCNc2nsc3ccccc23)c1 [Compound 368, N-(3-(benzo[d]isothiazol-3-ylamino)propyl)-4′-fluoro-6′-methoxybiphenyl-3-carboxamide]",< 5 µM

# Same assay, conditions: Table 5; the head prints only IC50; b387 says Tables 5 and 6 hold Replicon reporter and Western blot results
row,SMILES,IC50
1,"O=C(NCCNc1nsc2ccccc12)c1ccc(F)c(F)c1 [Compound 359, N-(2-(benzo[d]isothiazol-3-ylamino)ethyl)-3,4-difluorobenzamide]","A, B"
